Structures can show the parent of a compound that is named as a salt.

The term IC50 denotes the point on the concentration scale where inhibition reaches its midpoint. A higher IC50 goes with weaker potency in that assay.

The test deals with T1, IRAK4 (Homo sapiens, UniProt Q9NWZ3).
T1 sequence (Q9NWZ3 1-460): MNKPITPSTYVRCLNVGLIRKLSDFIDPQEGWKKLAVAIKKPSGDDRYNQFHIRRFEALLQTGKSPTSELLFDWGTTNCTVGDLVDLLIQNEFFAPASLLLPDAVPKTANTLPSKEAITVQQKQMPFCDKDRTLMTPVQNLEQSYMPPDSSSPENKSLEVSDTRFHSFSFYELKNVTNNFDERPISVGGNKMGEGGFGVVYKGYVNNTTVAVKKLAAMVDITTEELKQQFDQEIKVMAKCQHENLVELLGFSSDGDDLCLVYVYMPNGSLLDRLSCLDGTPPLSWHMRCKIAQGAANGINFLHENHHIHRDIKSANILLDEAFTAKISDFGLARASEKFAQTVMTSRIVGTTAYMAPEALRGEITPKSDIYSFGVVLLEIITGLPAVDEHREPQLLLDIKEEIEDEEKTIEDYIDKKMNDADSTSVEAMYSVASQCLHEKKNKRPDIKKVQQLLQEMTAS
The test is described as follows: 2-hour 1 mM ATP IRAK4 Biochemical assay (as above, but with 100 pM IRAK4 and 1 mM ATP). The settings on record: IRAK4 MSD BIOCHEMICAL (1 mM ATP) IC50 (μM), 100 pM IRAK4, 2 hours. The method, boiled down: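 MSD electrochemiluminescence read-out: biotinylated peptide product bound to streptavidin plates, probed with anti-P-Thr rabbit antibody and Sulfo-Tag goat anti-rabbit. Kinase reaction used 1 mM ATP and 100 pM IRAK4 over 2 hours before EDTA quench.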
`COCCn1ccc(C(=O)Nc2cn3cc(C4CCOCC4)nc3cc2OC(C)C)n1` [Example 383, N-(7-isopropoxy-2-(tetrahydro-2H-pyran-4-yl)imidazo[1,2-a]pyridin-6-yl)-1-(2-methoxyethyl)-1H-pyrazole-3-carboxamide 2,2,2-trifluoroacetate] returned an IC50 of 0.014 µM. In other words, the double-digit nanomolar range. Consider `CC(C)Oc1cc2nc(C3CCOCC3)cn2cc1NC(=O)c1ccn(C)n1` [Example 384, N-(7-isopropoxy-2-(tetrahydro-2H-pyran-4-yl)imidazo[1,2-a]pyridin-6-yl)-1-methyl-1H-pyrazole-3-carboxamide], for which the IC50 is 0.004 µM. With `Cc1nc(C(=O)Nc2cn3cc(C4CCOCC4)nc3cc2OC(C)C)co1` [Example 386, N-(7-isopropoxy-2-(tetrahydro-2H-pyran-4-yl)imidazo[1,2-a]pyridin-6-yl)-2-methyloxazole-4-carboxamide] the figure was 0.002 µM; with `CC(C)Oc1cc2nc(C3CCOCC3)cn2cc1NC(=O)c1coc(C2CCOCC2)n1` [Example 387, N-(7-isopropoxy-2-(tetrahydro-2H-pyran-4-yl)imidazo[1,2-a]pyridin-6-yl)-2-(tetrahydro-2H-pyran-4-yl)oxazole-4-carboxamide 2,2,2-trifluoroacetate], 0.001 µM; with `COc1cccc(C(=O)Nc2cn3cc(C4CCOCC4)nc3cc2C(F)F)n1` [Example 389, N-(7-(difluoromethyl)-2-(tetrahydro-2H-pyran-4-yl)imidazo[1,2-a]pyridin-6-yl)-6-methoxypicolinamide 2,2,2-trifluoroacetate], 0.016 µM. As for `Cn1ccc(C(=O)Nc2cn3cc(C45COC(C)(C4)C5)nc3cc2C(F)F)n1` [Example 390, N-(7-(difluoromethyl)-2-(1-methyl-2-oxabicyclo[2.1.1]hexan-4-yl)imidazo[1,2-a]pyridin-6-yl)-1-methyl-1H-pyrazole-3-carboxamide 2,2,2-trifluoroacetate], the IC50 worked out at 0.072 µM. Compared with the last compound, the IC50 is about 4.5-fold higher. On to `COc1ncccc1C(=O)Nc1cn2cc(C34COC(C)(C3)C4)nc2cc1C(F)F` [Example 391, N-(7-(difluoromethyl)-2-(1-methyl-2-oxabicyclo[2.1.1]hexan-4-yl)imidazo[1,2-a]pyridin-6-yl)-2-methoxynicotinamide 2,2,2-trifluoroacetate], for which the IC50 stood at 0.021 µM. Against the preceding compound, the IC50 is about 3.4-fold lower. With `Cc1cccc(C(=O)Nc2cn3cc(C45COC(C)(C4)C5)nc3cc2C(F)F)n1` [Example 392, N-(7-(difluoromethyl)-2-(1-methyl-2-oxabicyclo[2.1.1]hexan-4-yl)imidazo[1,2-a]pyridin-6-yl)-6-methylpicolinamide 2,2,2-trifluoroacetate] the figure was 0.008 µM; with `CC12CC(c3cn4cc(NC(=O)c5cccc(C(F)F)n5)c(C(F)F)cc4n3)(CO1)C2` [Example 393, 6-(difluoromethyl)-N-(7-(difluoromethyl)-2-(1-methyl-2-oxabicyclo[2.1.1]hexan-4-yl)imidazo[1,2-a]pyridin-6-yl)picolinamide 2,2,2-trifluoroacetate], 0.003 µM; with `O=C(Nc1cn2cc(C3CCOCC3)nc2cc1OC(F)F)c1cccc(C(F)F)n1` [Example 394, N-(7-(difluoromethoxy)-2-(tetrahydro-2H-pyran-4-yl)imidazo[1,2-a]pyridin-6-yl)-6-(difluoromethyl)picolinamide], 0.001 µM. With `CC12CC(c3cn4cc(NC(=O)c5cccc(C(F)F)n5)c(OC(F)F)cc4n3)(CO1)C2` [Example 395, N-(7-(difluoromethoxy)-2-(1-methyl-2-oxabicyclo[2.1.1]hexan-4-yl)imidazo[1,2-a]pyridin-6-yl)-6-(difluoromethyl)picolinamide 2,2,2-trifluoroacetate] the figure was 0.001 µM; with `COc1ncccc1C(=O)Nc1cn2cc(C34COC(C)(C3)C4)nc2cc1OC(F)F` [Example 396, N-(7-(difluoromethoxy)-2-(1-methyl-2-oxabicyclo[2.1.1]hexan-4-yl)imidazo[1,2-a]pyridin-6-yl)-2-methoxynicotinamide 2,2,2-trifluoroacetate], 0.002 µM. In the case of `Cn1ccc(C(=O)Nc2cn3cc(C45COC(C)(C4)C5)nc3cc2OC(F)F)n1` [Example 397, N-(7-(difluoromethoxy)-2-(1-methyl-2-oxabicyclo[2.1.1]hexan-4-yl)imidazo[1,2-a]pyridin-6-yl)-1-methyl-1H-pyrazole-3-carboxamide 2,2,2-trifluoroacetate] it was 0.021 µM; in that of `CC(Oc1cc2nc(C34COC(C)(C3)C4)cn2cc1NC(=O)c1ccn(C)n1)C(F)(F)F` (stereo not shown) [Example 399, 1-methyl-N-(2-(1-methyl-2-oxabicyclo[2.1.1]hexan-4-yl)-7-((1,1,1-trifluoropropan-2-yl)oxy)imidazo[1,2-a]pyridin-6-yl)-1H-pyrazole-3-carboxamide 2,2,2-trifluoracetate], 0.001 µM. `COc1ccccc1C(=O)Nc1cn2cc(Cl)nc2cc1OC(C)C` [Example 400, N-(2-chloro-7-isopropoxyimidazo[1,2-a]pyridin-6-yl)-2-methoxybenzamide 2,2,2-trifluoroacetate] registered an IC50 of 0.054 µM. In the case of `COc1ncccc1C(=O)Nc1cn2cc(Cl)nc2cc1OC(C)C` [Example 401, N-(2-chloro-7-isopropoxyimidazo[1,2-a]pyridin-6-yl)-2-methoxynicotinamide] it was 0.027 µM; in that of `COc1c(F)cccc1C(=O)Nc1cn2cc(Cl)nc2cc1OC(C)C` [Example 402, N-(2-chloro-7-isopropoxyimidazo[1,2-a]pyridin-6-yl)-3-fluoro-2-methoxybenzamide 2,2,2-trifluoroacetate], 0.157 µM; in that of `CC(C)Cc1cc2nc(C3CCOCC3)cn2cc1NC(=O)c1cccc(C(F)F)n1` [Example 404, 6-(difluoromethyl)-N-(7-isobutyl-2-(tetrahydro-2H-pyran-4-yl)imidazo[1,2-a]pyridin-6-yl)picolinamide], 0.004 µM. With `O=C(Nc1cn2cc(C3CCOCC3)nc2cc1Cl)c1cccc(C(F)F)n1` [Example 405, N-(7-chloro-2-(tetrahydro-2H-pyran-4-yl)imidazo[1,2-a]pyridin-6-yl)-6-(difluoromethyl)picolinamide 2,2,2-trifluoroacetate] the figure was 0.006 µM; with `Cc1cc(NC(=O)c2cccc(C(F)F)n2)cn2cc(C34COC(C)(C3)C4)nc12` [Example 406, 6-(difluoromethyl)-N-(8-methyl-2-(1-methyl-2-oxabicyclo[2.1.1]hexan-4-yl)imidazo[1,2-a]pyridin-6-yl)picolinamide], 0.032 µM; with `COc1c(F)cccc1C(=O)Nc1cc(C)c2nc(C34COC(C)(C3)C4)cn2c1` [Example 407, 3-fluoro-2-methoxy-N-(8-methyl-2-(1-methyl-2-oxabicyclo[2.1.1]hexan-4-yl)imidazo[1,2-a]pyridin-6-yl)benzamide], 0.732 µM. In the case of `Cc1cc(NC(=O)c2cccc3ccnn23)cn2cc(C34COC(C)(C3)C4)nc12` [Example 408, N-(8-methyl-2-(1-methyl-2-oxabicyclo[2.1.1]hexan-4-yl)imidazo[1,2-a]pyridin-6-yl)pyrazolo[1,5-a]pyridine-7-carboxamide 2,2,2-trifluoroacetate] it was 0.025 µM; in that of `Cc1cc(NC(=O)c2ccn(C)n2)cn2cc(C34COC(C)(C3)C4)nc12` [Example 409, 1-methyl-N-(8-methyl-2-(1-methyl-2-oxabicyclo[2.1.1]hexan-4-yl)imidazo[1,2-a]pyridin-6-yl)-1H-pyrazole-3-carboxamide 2,2,2-trifluoroacetate], 0.534 µM; in that of `CCOc1cc(NC(=O)c2cccc(C(F)F)n2)cn2cc(C34COC(C)(C3)C4)nc12` [Example 414, 6-(difluoromethyl)-N-(8-ethoxy-2-(1-methyl-2-oxabicyclo[2.1.1]hexan-4-yl)imidazo[1,2-a]pyridin-6-yl)picolinamide 2,2,2-trifluoroacetate], 0.01 µM. Compound `CCOc1cc(NC(=O)c2cccc(C(F)(F)F)n2)cn2cc(C3CCOCC3)nc12` [Example 415, N-(8-ethoxy-2-(tetrahydro-2H-pyran-4-yl)imidazo[1,2-a]pyridin-6-yl)-6-(trifluoromethyl)picolinamide hydrochloride] gave an IC50 of 0.033 µM. With `CCOc1cc(NC(=O)c2cccc(C(F)(F)F)n2)cn2cc([C@H]3[C@@H]4COC[C@@H]43)nc12` [Example 416, N-(2-((1R,5S,6s)-3-oxabicyclo[3.1.0]hexan-6-yl)-8-ethoxyimidazo[1,2-a]pyridin-6-yl)-6-(trifluoromethyl)picolinamide] the figure was 0.023 µM. In the case of `CCOc1cc(NC(=O)c2cccc(C)n2)cn2cc([C@H]3[C@@H]4COC[C@@H]43)nc12` [Example 417, N-(2-((1R,5S,6s)-3-oxabicyclo[3.1.0]hexan-6-yl)-8-ethoxyimidazo[1,2-a]pyridin-6-yl)-6-methylpicolinamide] it was 0.022 µM. Take `CC(C)Oc1cc(NC(=O)c2cccc(C(F)F)n2)cn2cc(C3CCOCC3)nc12` [Example 418, 6-(difluoromethyl)-N-(8-isopropoxy-2-(tetrahydro-2H-pyran-4-yl)imidazo[1,2-a]pyridin-6-yl)picolinamide 2,2,2-trifluoroacetate]: inhibition was half-maximal at 0.021 µM (IC50).
